Measurements taken from patent US11174250B2, “Substituted carboxamides as inhibitors of WDR5 protein-protein binding” (PROPELLON THERAPEUTICS INC., priority 2016, dated 2021).
Where two headings read alike, the source gives them in different places.

Legend:
MV4-11 cells = assay: Cell proliferation assay (ATPlite); type: cell-based; conditions: Homo sapiens, MV4-11, 120 h; MV-411 cells, five days; read-out: In vitro whole cell potency in MV-411 cells, (IC50)
Method: MV4-11 cells were seeded into a 96-well plate at 1,000 cells/well in 150 μl medium (Alpha-MEM containing 10% FBS, 100 μg/ml Normocin, and 50 μg/ml Gentamycin, Invitrogen). A HP D300 digital dispenser was used to dose cells with DMSO or test compounds across a 10-point range of concentrations (high dose of 10 μM), and cultures were grown in a humidified 5% CO2 incubator at 37° C. After five days, plates were removed from incubator and equilibrated to room temperature. An equal volume of ATPlite assay reagent was added to each well, and samples were processed according to manufacturer's instructions (Perkin Elmer). Luminescent signal was measured using an Envision plate reader equipped with a US-Luminescence detector.

MLL1-WRAD2 complex = MLL1-WRAD2 complex (Homo sapiens (Human), UniProt P61964); assay: MLL1-WRAD2 enzyme assay (in vitro methyl transferase assay); type: biochemical; conditions: MLL1-WRAD2 assay; read-out: In vitro MLL1 activity (IC50)
Method: Reaction was initiated with 1 μM 3H-SAM and incubated for 1 hour at 30° C. Reaction mixture was transferred to P81 filter-paper and washed with PBS before detection.

WDR5 protein = WDR5 protein (Homo sapiens (Human), UniProt P61964); assay: Surface Plasmon Resonance (SPR) assay; type: binding; conditions: SPR; for residence time: τ=1/koff, read-out: Residence Time (t, min)
[1] = Table 1, read-out: WDR5 binding affinity (KD)
[2] = Table 2, read-out: WDR5 binding affinity SPR (KD)

Structure (SMILES)	IC50 (MV4-11 cells) [nM]	IC50 (MLL1-WRAD2 complex) [nM]	Kd (WDR5 protein; [1]) [nM]	Kd (WDR5 protein; [2]) [nM]	residence time (WDR5 protein) [min]
C[C@@H]1CN(c2ccc(-c3cc(OCC4CC4)ncc3F)cc2NC(=O)c2c[nH]c(=O)cc2C(F)(F)F)C[C@H](C)N1C [Example 50, N-(5-(2-(cyclopropylmethoxy)-5-fluoropyridin-4-yl)-2-((3S,5R)-3,4,5-trimethylpiperazin-1-yl)phenyl)-6-oxo-4-(trifluoromethyl)-1,6-dihydropyridine-3-carboxamide]	943	1790	4	4	12.6
CN1CCN(c2ccc(-c3cc(OC4CCOCC4)ncc3F)cc2NC(=O)c2c[nH]c(=O)cc2C(F)(F)F)CC1 [Example 31, N-(5-(5-fluoro-2-((tetrahydro-2H-pyran-4-yl)oxy)pyridin-4-yl)-2-(4-methylpiperazin-1-yl)phenyl)-6-oxo-4-(trifluoromethyl)-1,6-dihydropyridine-3-carboxamide]	1280	1740	9	9	5.76
CN1CCN(c2ccc(-c3ccnc(N4CCOCC4)c3F)cc2NC(=O)c2c[nH]c(=O)cc2C(F)(F)F)CC1 [Example 39, N-(5-(3-fluoro-2-morpholinopyridin-4-yl)-2-(4-methylpiperazin-1-yl)phenyl)-6-oxo-4-(trifluoromethyl)-1,6-dihydropyridine-3-carboxamide]	> 10000	2510	28	28	1.46
CN1CCN(c2ccc(-c3cc(CN4CCOCC4)ccc3F)cc2NC(=O)c2c[nH]c(=O)cc2C(F)F)CC1 [Example 49, 4-(difluoromethyl)-N-(2′-fluoro-4-(4-methylpiperazin-1-yl)-5′-(morpholinomethyl)-[1,1′-biphenyl]-3-yl)-6-oxo-1,6-dihydropyridine-3-carboxamide]	2240	1570	7	7	3.89
CN1CCN(c2ccc(-c3cc(CN4CCC(N5CCOCC5)CC4)ccc3F)cc2NC(=O)c2c[nH]c(=O)cc2C(F)(F)F)CC1 [Example 70, N-(2′-fluoro-4-(4-methylpiperazin-1-yl)-5′-((4-morpholinopiperidin-1-yl)methyl)-[1,1′-biphenyl]-3-yl)-6-oxo-4-(trifluoromethyl)-1,6-dihydropyridine-3-carboxamide]	1140	1110	4.4	4.4	5.8
CN1CCN(c2ccc(-c3cc(CN4CC[C@@H](S(C)(=O)=O)C4)ccc3F)cc2NC(=O)c2c[nH]c(=O)cc2C(F)(F)F)CC1 [Example 75, (R)—N-(2′-fluoro-4-(4-methylpiperazin-1-yl)-5′-((3-(methylsulfonyl)pyrrolidin-1-yl)methyl)-[1,1′-biphenyl]-3-yl)-6-oxo-4-(trifluoromethyl)-1,6-dihydropyridine-3-carboxamide]	1220	2090	5.9	5.9	5.13
COCOc1cc(F)c(-c2ccc(N3CCN(C)CC3)c(NC(=O)c3c[nH]c(=O)cc3C(F)(F)F)c2)cc1C(=O)NC(C)(C)CC(C)(C)C [Example 3, N-(2′-fluoro-4′-(methoxymethoxy)-4-(4-methylpiperazin-1-yl)-5′-((2,4,4-trimethylpentan-2-yl)carbamoyl)-[1,1′-biphenyl]-3-yl)-6-oxo-4-(trifluoromethyl)-1,6-dihydropyridine-3-carboxamide]	3180	966	11	11	6.4
CN1CCN(c2ccc(-c3cc(CN4CCN(Cc5ccc(F)cc5)CC4)ccc3F)cc2NC(=O)c2c[nH]c(=O)cc2C(F)(F)F)CC1 [Example 68, N-(2′-fluoro-5′-((4-(4-fluorobenzyl)piperazin-1-yl)methyl)-4-(4-methylpiperazin-1-yl)-[,1′-biphenyl]-3-yl)-6-oxo-4-(trifluoromethyl)-1,6-dihydropyridine-3-carboxamide]	1790	1890	7.7	7.7	3.81
CC1CN(c2ccc(-c3cc(C(=O)NC4CCCCC4)ccc3F)cc2NC(=O)c2c[nH]c(=O)cc2C(F)(F)F)CCN1C (centres unmarked) [Example 81, N-(5′-(cyclohexylcarbamoyl)-4-(3,4-dimethylpiperazin-1-yl)-2′-fluoro-[1,1′-biphenyl]-3-yl)-6-oxo-4-(trifluoromethyl)-1,6-dihydropyridine-3-carboxamide]	> 10000	> 30000	6.3	17.5	0.78
C[C@@H]1CN(c2ccc(-c3cc(C(=O)NC4CCCCC4)ccc3F)cc2NC(=O)c2c[nH]c(=O)cc2C(F)(F)F)C[C@H](C)N1C [Example 46, N-(5′-(cyclohexylcarbamoyl)-2′-fluoro-4-((3S,5R)-3,4,5-trimethylpiperazin-1-yl)-[1,1′-biphenyl]-3-yl)-6-oxo-4-(trifluoromethyl)-1,6-dihydropyridine-3-carboxamide]	118	290	0.95	0.95	74.4
CN1CCN(c2ccc(-c3cc(OCC4CC4)ncc3F)cc2NC(=O)c2c[nH]c(=O)cc2C(F)(F)F)CC1 [Example 15, N-(5-(2-(cyclopropylmethoxy)-5-fluoropyridin-4-yl)-2-(4-methylpiperazin-1-yl)phenyl)-6-oxo-4-(trifluoromethyl)-1,6-dihydropyridine-3-carboxamide]	2260	2250	9	9	4.04
CN1CCN(c2ccc(-c3cc(CN4CCN(CC5CC5)CC4)ccc3F)cc2NC(=O)c2c[nH]c(=O)cc2C(F)(F)F)CC1 [Example 66, N-(5′-((4-(cyclopropylmethyl)piperazin-1-yl)methyl)-2′-fluoro-4-(4-methylpiperazin-1-yl)-[1,1′-biphenyl]-3-yl)-6-oxo-4-(trifluoromethyl)-1,6-dihydropyridine-3-carboxamide]	1130	1100	7.2	7.2	3.79
CN1CCN(c2ccc(-c3cc(CNC4CCOCC4)ccc3F)cc2NC(=O)c2c[nH]c(=O)cc2C(F)(F)F)CC1 [Example 37, N-(2′-fluoro-4-(4-methylpiperazin-1-yl)-5′-(((tetrahydro-2H-pyran-4-yl)amino)methyl)-[,1′-biphenyl]-3-yl)-6-oxo-4-(trifluoromethyl)-1,6-dihydropyridine-3-carboxamide]	2910	1300	5	6	4.38
CN1CCN(c2ccc(-c3ccc(OCC4CC4)nc3F)cc2NC(=O)c2c[nH]c(=O)cc2C(F)(F)F)CC1 [Example 16, N-(5-(6-(cyclopropylmethoxy)-2-fluoropyridin-3-yl)-2-(4-methylpiperazin-1-yl)phenyl)-6-oxo-4-(trifluoromethyl)-1,6-dihydropyridine-3-carboxamide]	5970	1470	10	10	5.25
CCN1CCN(c2ccc(-c3cc(CNC4CCCCC4)ccc3F)cc2NC(=O)c2c[nH]c(=O)cc2C(F)(F)F)CC1 [Example 63, N-(5′-((cyclohexylamino)methyl)-4-(4-ethylpiperazin-1-yl)-2′-fluoro-[1,1′-biphenyl]-3-yl)-6-oxo-4-(trifluoromethyl)-1,6-dihydropyridine-3-carboxamide]	> 10000	5630	> 200	> 200	
CN1CCN(c2ccc(-c3cc(CN4CCOC(C)(C)C4)ccc3F)cc2NC(=O)c2c[nH]c(=O)cc2C(F)(F)F)CC1 [Example 77, N-(5′-((2,2-dimethylmorpholino)methyl)-2′-fluoro-4-(4-methylpiperazin-1-yl)-[1,1′-biphenyl]-3-yl)-6-oxo-4-(trifluoromethyl)-1,6-dihydropyridine-3-carboxamide]	1280	907	4.5	4.5	5.41
C[C@@H]1CN(c2ccc(-c3ccc(OCC4CC4)nc3F)cc2NC(=O)c2c[nH]c(=O)cc2C(F)(F)F)C[C@H](C)N1C [Example 82, N-(5-(6-(cyclopropylmethoxy)-2-fluoropyridin-3-yl)-2-((3R,5S)-3,4,5-trimethylpiperazin-1-yl)phenyl)-6-oxo-4-(trifluoromethyl)-1,6-dihydropyridine-3-carboxamide]	536	549	0.7	0.7	23
CN1CCN(c2ccc(-c3cc(CN(C)C4CCCCC4)ccc3F)cc2NC(=O)c2c[nH]c(=O)cc2C(F)(F)F)CC1 [Example 67, N-(5′-((cyclohexyl(methyl)amino)methyl)-2′-fluoro-4-(4-methylpiperazin-1-yl)-[1,1′-biphenyl]-3-yl)-6-oxo-4-(trifluoromethyl)-1,6-dihydropyridine-3-carboxamide]	292	1150	3.2	3.2	8.8
